# In patent US20210038569A1, “COMPOSITIONS AND METHODS FOR TREATING PIGMENTATION DISORDERS” (Timber Pharmaceuticals, Inc., priority 2018, published 2021):
# Entries after “also recorded” stand apart in the source; their conditions may differ. Read-outs that look alike come from different tables or passages of the source.
# How the values were obtained:
# [1] = tested on: normal human dermal fibroblasts (NHDFs) stimulated with TGF-β1; experiment: Cell cytotoxicity in TGF-β1 induced normal human dermal fibroblasts; assay type: cell-based; conditions: for Cell Cytotoxicity: 48 hours, 50 ng/mL TGF-β1; for Cytotoxicity, result in words: compared with vehicle control and between compounds
# Protocol: The effect of sitaxentan on cell viability, cell cytotoxicity, and apoptosis was measured in an assay using normal human dermal fibroblasts induced with TGF-β1 into a profibrotic phenotype. For these assays cells were grown for 48 hours in the presence of vehicle control, sitaxentan, and bosentan. The appropriate assay reagents and measuring techniques were used as indicated herein.
# normal human dermal fibroblast cells (LLCT FC0024 lot 03869_ fibroblast) were seeded to confluence in 96 well plates in 10% fetal bovine serum (FBS) Dulbecco's modified eagle medium (DMEM).
# The cells were washed to remove the FBS, and serum free media was added overnight (O/N).
# The cells were then stimulated with 50 ng/mL TGF-β1 and treated.
# For the cell cytotoxicity assay:
# 20 μl of the Cytotoxicity Reagent (Promega, Cat #G6320) containing both GF-AFC Substrate and bis-AAF-R110 Substrate, for measuring dead cells (cytotoxicity), was added and briefly mixed.
# The plates for the different assays were then incubated for 30 minutes at 37° C.
# Fluorescence was measured at: 400Ex/505Em (Viability) and 485Ex/520Em (Cytotoxicity)
# Data were analyzed using GraphPad Prism 7.
# Six to nine replicates were run for each sample.
# [2] = cited from earlier work
# [3] = tested on: normal human dermal fibroblasts (NHDFs) stimulated with TGF-β1; experiment: Apoptosis (Caspase-Glo 3/7) in TGF-β1 induced normal human dermal fibroblasts; assay type: cell-based; conditions: for Apoptosis: 48 hours, 50 ng/mL TGF-β1; for Apoptosis, result in words: after treatment, compared with vehicle control and between compounds
# Protocol: For these assays cells were grown for 48 hours in the presence of vehicle control, sitaxentan, and bosentan. The appropriate assay reagents and measuring techniques were used as indicated herein. Normal human dermal fibroblast cells (LLCT FC0024 lot 03869_ fibroblast) were seeded to confluence in 96 well plates in 10% fetal bovine serum (FBS) Dulbecco's modified eagle medium (DMEM). The cells were washed to remove the FBS, and serum free media was added overnight (O/N). The cells were then stimulated with 50 ng/mL TGF-β1 and treated. For the apoptosis assay: 100 μl of Caspase-Glo® 3/7 Reagent (Promega, Cat #G6320), for the apoptosis assay, was added and briefly mixed. The plate was incubated for 30 minutes at room temperature prior to measurement of luminescence Data were analyzed using GraphPad Prism 7. Six to nine replicates were run for each sample.
# [4] = tested on: primary normal human adult melanocytes; experiment: Melanin content in melanocytes; assay type: cell-based; conditions: for Melanin Content (absorbance at 400 nm): 24 hours
# Protocol: (§1) The effect of sitaxentan on human melanocytes was measured. For these assays cells were grown for 24 hours in the presence of vehicle control, sitaxentan, and bosentan. The appropriate assay reagents and measuring techniques were used as indicated herein. Melanocytes, from either Caucasian or African American donors, were grown to confluence in 6-well tissue culture plates using LLCT DermaLife Ma complete medium and treated with compounds for 24 hours. Treated cells were removed from the plate with 0.25% trypsin for 10 minutes and then centrifuged at 0.4 g for 5 minutes. The resulting cell pellet was resuspended in 50 μL of 1M NaOH/10% DMSO solution. The resultant suspension was vortexed for 30 seconds. The suspension was then baked in a drying oven at 80° C. for 1 hour. The suspension was vortexed again for 30 seconds and then transferred to a black half-area 96-well plate and read in a UV/VIS spectrophotometer at 400 nm. Data were analyzed using GraphPad Prism 7.
# [5] = target: T1, endothelin-A (ET-A) receptor (Homo sapiens, UniProt P25101); conditions: cited from earlier work
# T1 sequence (P25101 21-427): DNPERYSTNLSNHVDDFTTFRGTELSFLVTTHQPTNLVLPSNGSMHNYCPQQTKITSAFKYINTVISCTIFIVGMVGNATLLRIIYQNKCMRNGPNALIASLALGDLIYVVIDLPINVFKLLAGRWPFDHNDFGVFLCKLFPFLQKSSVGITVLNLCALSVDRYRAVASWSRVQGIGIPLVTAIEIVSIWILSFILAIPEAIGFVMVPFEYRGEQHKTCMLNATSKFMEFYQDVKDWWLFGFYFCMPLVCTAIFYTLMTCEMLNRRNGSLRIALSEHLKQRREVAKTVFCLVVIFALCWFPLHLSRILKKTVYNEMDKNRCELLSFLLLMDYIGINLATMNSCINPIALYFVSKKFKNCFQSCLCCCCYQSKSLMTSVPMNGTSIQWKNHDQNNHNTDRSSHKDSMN
# [6] = tested on: normal human dermal fibroblasts (NHDFs) stimulated with TGF-β1; experiment: Cell viability in TGF-β1 induced normal human dermal fibroblasts; assay type: cell-based; conditions: for Cell Viability: 48 hours, 50 ng/mL TGF-β1
# Protocol: For these assays cells were grown for 48 hours in the presence of vehicle control, sitaxentan, and bosentan. The appropriate assay reagents and measuring techniques were used as indicated herein. Normal human dermal fibroblast cells (LLCT FC0024 lot 03869_ fibroblast) were seeded to confluence in 96 well plates in 10% fetal bovine serum (FBS) Dulbecco's modified eagle medium (DMEM). The cells were washed to remove the FBS, and serum free media was added overnight (O/N). The cells were then stimulated with 50 ng/mL TGF-β1 and treated. For the cell viability assay: 20 μl of the Viability Reagent (Promega, Cat #G6320) containing both GF-AFC Substrate and bis-AAF-R110 Substrate, for measuring live cell viability, was added and briefly mixed. The plates for the different assays were then incubated for 30 minutes at 37° C. […] Data were analyzed using GraphPad Prism 7. Six to nine replicates were run for each sample.
# [7] = in vivo; cited from earlier work
# [8] = tested on: primary normal human adult melanocytes; experiment: Melanin content in melanocytes; assay type: cell-based; conditions: for Melanin Content (absorbance at 400 nm): 24 hours; remark: listed apart in the source
# Protocol: as §1
Structure (SMILES),Cell Cytotoxicity ([1]; 1 μM) [RFUs],Cell Cytotoxicity ([1]; 3 μM) [RFUs],Cell Cytotoxicity ([1]; 10 μM) [RFUs],Cell Cytotoxicity ([1]; 30 μM) [RFUs],Cell Cytotoxicity ([1]; 100 μM) [RFUs],"Cytotoxicity, result in words [1]",Apoptosis ([3]; 1 μM) [RLUs],Apoptosis ([3]; 3 μM) [RLUs],Apoptosis ([3]; 10 μM) [RLUs],Apoptosis ([3]; 30 μM) [RLUs],Apoptosis ([3]; 100 μM) [RLUs],"Apoptosis, result in words [3]","Effect on melanin content, result in words [4]",Melanin Content (absorbance at 400 nm) ([4]; 30 μM),Melanin Content (absorbance at 400 nm) ([4]; 100 μM),Cell Viability ([6]; 1 μM) [RFUs],Cell Viability ([6]; 3 μM) [RFUs],Cell Viability ([6]; 10 μM) [RFUs],Cell Viability ([6]; 30 μM) [RFUs],Cell Viability ([6]; 100 μM) [RFUs],further results
"Cc1cc2c(cc1CC(=O)c1sccc1S(=O)(=O)Nc1onc(C)c1Cl)OCO2 [sitaxentan, N-(4-Chloro-3-methyl-5-isoxazolyl)-2-[(2-methyl-4,5-methylenedioxyphenyl)-acetyl]thiophene-3-sulfonamide]",4643.9,5058.3,4741.7,3837.5,2911.3,neither bosentan nor sitaxentan was significantly more cytotoxic than the vehicle control,37593.4,39162.8,39512.0,46053.5,51050.2,elevated; also recorded: significantly more potent effect than bosentan,superior to bosentan in reducing the melanin content; also recorded: significantly more effective than a vehicle control at reducing melanin content; also recorded: significantly decreased melanin content,0.579,0.544,5678.3,5639.0,5600.5,5250.8,5171.0,"Cytotoxicity, result in words ([1]; listed as sitaxsentan): significantly less cytotoxic to human skin cells than bosentan; Protein binding [2]: > 99%; Selectivity for ET-A compared to ET-B (factor) [5]: 6000; Toxicity (cell viability), result in words ([6]; concentrations up to 100 μM): no significant toxicity was observed; Metabolism [7]: hepatic (CYP2C9- and CYP3A4-mediated); Effect on melanin content, result in words [8]: superior to bosentan in reducing the melanin content; also recorded: significantly more effective than a vehicle control at reducing melanin content; also recorded: significantly decreased melanin content; Melanin Content (absorbance at 400 nm) ([8]; 30 μM): 0.471; Melanin Content (absorbance at 400 nm) ([8]; 100 μM): 0.46"
COc1ccccc1Oc1c(NS(=O)(=O)c2ccc(C(C)(C)C)cc2)nc(-c2ncccn2)nc1OCCO [bosentan],4256.9,3954.2,3764.0,4607.5,3929.0,neither bosentan nor sitaxentan was significantly more cytotoxic than the vehicle control; also recorded: significantly more cytotoxic than sitaxentan,39366.8,38639.8,38586.7,42825.2,43330.7,elevated,no effect on melanin content,0.633,0.703,5406.8,5548.5,5521.2,5537.0,5584.3,"Effect on melanin content, result in words [8]: no effect on melanin content; Melanin Content (absorbance at 400 nm) ([8]; 30 μM): 0.511; Melanin Content (absorbance at 400 nm) ([8]; 100 μM): 0.497"
